Test results: US12569440B2, “Solid formulation of a 1,2,4-oxadiazole derivative” (ABAXYS THERAPEUTICS, priority 2019, dated 2026)
Blank lines part the entries; values can stand above or below the compound they belong to.

Assays:
[1] = Formulation study: mixing Compound A with liquid or solid acids, resulting composition and physical stability; format: physicochemical; conditions: Compound A alone, before mixing
Procedure: In a round bottom flask, to a solution of A in anhydrous Et2O (6 mL/mmol) under argon atmosphere, the acid was added dropwise, as a pure liquid or in anhydrous Et2O (3 mL/mmol) solution. The mixture was allowed to stand for 3 h. The product was then isolated by evaporation of the solvent and was dried under vacuum.
Two different net grinding procedures were used: • Solid mixing 1: In an Eppendorf, A (200 mg, 0.5 mmol) and the acid were added. The Eppendorf was then placed in the grinding device (Retsch MM400) and allowed to stir for 90 min at 30 Hz. • Solid mixing 2: In a mortar, A (200 mg, 0.5 mmol) and acid were added and then manually grinded with a pestle.

[2] = Specific surface area by BET analysis (nitrogen adsorption-desorption at 77 K); format: physicochemical; conditions: for BET surface (specific surface area): nitrogen adsorption at 77 K, 0.05-0.20 P/P0
Procedure: Specific surface area was measured by Nitrogen adsorption-desorption analyses at 77 K with a volumetric adsorption analyser (Micromeritics 3Flex physisorption apparatus). The Brunauer—Emmet—Teller (BET) method was applied in the 0.05-0.20 P /PO range to calculate the specific surface area.

physical form of free compound [1]: oil
SMILES: FC(F)(F)c1ccc(-c2noc(CN3CCCC(CN4CCOCC4)C3)n2)cc1 (stereo not shown) [Compound A]

BET surface (specific surface area) ([2]; listed as Saccharin (commercial)): 9.9 m^2/g
SMILES: O=C1NS(=O)(=O)c2ccccc21 [Saccharin, 1,1-dioxo-1,2-benzothiazol-3-one]

BET surface (specific surface area) [2]: 6.7 m^2/g | change of specific surface area (BET) ([2]; saccharin after grinding vs commercial, A-2SA vs saccharin alone after same grinding procedure): about −30%
SMILES: O=C1NS(=O)(=O)c2ccccc21 [Saccharin (after grinding), 1,1-dioxo-1,2-benzothiazol-3-one]
